Experimental findings from the OligoGym collection are described below.

After the bases stand the sugars from the 5' end (letter, count) and the backbone: PS all phosphorothioate, else s phosphorothioate and o phosphodiester by linkage. Methylation of C is not given here. e = 2'-O-(2-methoxyethyl) (MOE); k = constrained ethyl (cEt); d = 2'-deoxy (DNA); m = 2'-O-methyl

The data set addresses HSD17B13. The conditions noted are these: ASO, HepaRG.

As for “TTGCAGTTATTAGAAG (sugars k3 d1 m1 d8 k3, PS)”, the target mRNA inhibition (1 µM) was 17%.
Same read-out and setting: next, CAAGATTAGTCTTGAT (sugars k3 d10 k3, PS): 27%; “GTAGCTTTTGTCCACC (sugars k3 d9 k3 e1, PS)”: 67%.
The sequence AGCTGGTAAAGGTAAG (sugars k3 d10 k3, PS) had a target mRNA inhibition (1 µM) of 55%.
Still for that read-out and setting: next, CATATACAGACTAAGG (sugars k3 d10 k3, PS): 57%; AGCATTATTCACCACG (sugars k3 d10 k3, PS): 53%.
With “GCATGGCTACAGATTG (sugars k3 d1 m1 d8 k3, PS)”, the target mRNA inhibition reads like this: (0.02 µM) 2%; (0.078 µM) 2%; (0.313 µM) 31%; (1 µM) 76%; (1.25 µM) 61%; (5 µM) 78%.
GGCAAAAGGAGCCAGT (sugars k3 d10 k3, PS) displayed a target mRNA inhibition (1 µM) of 43%.
Still for that read-out and setting: next, GTCCAAAAGTGTCCTC (sugars k3 d10 k3, PS): 35%; “CATCUCTGGGACCAAG (sugars k3 d1 m1 d8 k3, PS)”: 42%; ATTCTAAACTAGTGGT (sugars k3 d10 k3, PS): 39%.
CGACTCCAAGTAGGAG (sugars k3 d10 k3, PS) yielded a target mRNA inhibition (1 µM) of 10%.
For the sequence CTATTAGTTGGCCTGC (sugars k3 d10 k3, PS), for the setting “1 µM”, the target mRNA inhibition turned out to be 32%.
Take AGGTAAGGAATCCCTT (sugars k3 d10 k3, PS): for the setting “1 µM”, the target mRNA inhibition was found to be 0%.
As for “AAGTUAGCCCCCAGGA (sugars k3 d1 m1 d8 k3, PS)”, the target mRNA inhibition (1 µM) worked out at 0%.
Still for that read-out and setting: to “ATGAGGTTTTGATACC (sugars k3 d9 k3 e1, PS)” belongs 20%; to ACAAGAGTTCTTGCAG (sugars k3 d10 k3, PS), 29%; to TTGGGACCAATATAAT (sugars k3 d10 k3, PS), 18%.
Same read-out and setting: to CTTCACTATATTGCAT (sugars k3 d10 k3, PS) belongs 50%; to TGGCATGGCTACAGAT (sugars k3 d10 k3, PS), 57%.
Still for that read-out and setting: next, TTTAGGGAGGTAGCTT (sugars k3 d10 k3, PS): 24%; GGCAAGACAGACTGTT (sugars k3 d10 k3, PS): 75%; TCTTGACAATGGTTGA (sugars k3 d10 k3, PS): 75%.
Turning to CACGAAGCCTGAATGC (sugars k3 d10 k3, PS), the target mRNA inhibition (1 µM) was determined as 24%.
On the same count and under the same terms, to TTTCGGCACTCAGCTG (sugars k3 d10 k3, PS) belongs 29%.
Turning to GCATTCATCAGATGTT (sugars k3 d10 k3, PS), the target mRNA inhibition amounted to 3% (0.02 µM); 24% (0.078 µM); 66% (0.313 µM); 89% (1 µM); 86% (1.25 µM); 91% (5 µM).
Consider GCAGAGACAGTAGATT (sugars k3 d10 k3, PS), for which the target mRNA inhibition (1 µM) worked out at 63%.
Still for that read-out and setting: to CATTCTGTGTTCTTGT (sugars k3 d10 k3, PS) belongs 60%.
Still for that read-out and setting: next, CTAGGAGATATAACAT (sugars k3 d10 k3, PS): 40%; CCACTTTTGGTGGACT (sugars k3 d10 k3, PS): 17%; TCCGAAAAAAGTGGAG (sugars k3 d10 k3, PS): 12%.
The sequence GCAGTAAAGTGCTAAG (sugars k3 d10 k3, PS) gave a target mRNA inhibition (0.02 µM) of 44%; a target mRNA inhibition (0.078 µM) of 37%; a target mRNA inhibition (0.313 µM) of 62%; a target mRNA inhibition (1 µM) of 83%; a target mRNA inhibition (1.25 µM) of 78%; a target mRNA inhibition (5 µM) of 91%.
Sequence “ATTGTCTAAACATCTC (sugars kkdddddddddkekek, PS)” had a target mRNA inhibition (1 µM) of 62%.
Still for that read-out and setting: next, GATGATTCTGACTCAT (sugars k3 d10 k3, PS): 55%.
Still for that read-out and setting: to CATAACCTAATAACTA (sugars k3 d10 k3, PS) belongs 10%; to TCAGACTTCTTACGAC (sugars k3 d10 k3, PS), 36%.
Turning to “ATCTCTGGGACCAAGG (sugars k3 d1 m1 d8 k3, PS)”, the target mRNA inhibition (1 µM) came to 52%.
The same measure, in the same setting: to GAGTTATACAGAAGAC (sugars k3 d10 k3, PS) belongs 61%; to AAATCATGGTGTGGAG (sugars k3 d10 k3, PS), 1%; to TAGAACACTTGCCTCA (sugars k3 d10 k3, PS), 31%.
Same read-out and setting: next, “ATAGAGTTGCACCGTT (sugars k3 d1 m1 d8 k3, PS)”: 59%.
The same measure, in the same setting: next, AGCCAGTACAGTTCCT (sugars k3 d10 k3, PS): 58%; TAGGGAGGTAGCTTTT (sugars k3 d10 k3, PS): 46%.
The sequence GTAACGGTGATCAAAT (sugars k3 d10 k3, PS) gave a target mRNA inhibition (1 µM) of 34%.
In turn, GGCAAATACAGCAGTA (sugars k3 d10 k3, PS) showed a target mRNA inhibition (1 µM) of 64%.
The same measure, in the same setting: to GTTTACAAGTAAGAAC (sugars k3 d10 k3, PS) belongs 42%.
Same read-out and setting: to “TGTGGCATGGCTACAG (sugars k3 d1 m1 d8 k3, PS)” belongs 5%.
Regarding “AAAGACTTTGAGACTC (sugars k3 d1 m1 d8 k3, PS)”, the target mRNA inhibition is 14% (0.02 µM); 28% (0.078 µM); 42% (0.313 µM); 76% (1 µM); 66% (1.25 µM); 77% (5 µM).
CTGGGACCAAGGATAT (sugars k3 d10 k3, PS) showed a target mRNA inhibition (1 µM) of 32%.
Regarding TCTGGGACCAAGGATA (sugars k3 d10 k3, PS), the target mRNA inhibition (1 µM) is 30%.
Same read-out and setting: next, AAGAGGCTAGGGAAAT (sugars k3 d10 k3, PS): 66%.
Consider “TTGAACAGTCTTAAAC (sugars k3 d9 k3 e1, PS)”, for which the target mRNA inhibition (1 µM) came to 35%.
Where the note is “1 µM”, “CTTTGAGACTCTTGTT (sugars k3 d1 m1 d8 k3, PS)” had a target mRNA inhibition of 15%.
As for AGGATGATGTTCATGG (sugars k3 d10 k3, PS), the target mRNA inhibition by setting is: (0.02 µM) 25%; (0.078 µM) 27%; (0.313 µM) 71%; (1 µM) 88%; (1.25 µM) 80%; (5 µM) 71%.
As to GAGTAGTGTAAGCTGA (sugars k3 d10 k3, PS), the target mRNA inhibition came to 12% (0.02 µM); 12% (0.078 µM); 51% (0.313 µM); 80% (1 µM); 69% (1.25 µM); 92% (5 µM).
In turn, “TATAGTTATCTTCTCA (sugars k3 d1 m1 d8 k3, PS)” came in with a target mRNA inhibition (1 µM) of 33%.
For the sequence GCCACTGGATGGATTT (sugars k3 d10 k3, PS), the target mRNA inhibition (1 µM) was 36%.
Still for that read-out and setting: next, GCCAGTACAGTTCCTT (sugars k3 d10 k3, PS): 61%; GAATAGCCATGTAGCT (sugars k3 d10 k3, PS): 21%; TTAAACCTTCCCTGTG (sugars k3 d10 k3, PS): 22%.
The same measure, in the same setting: to “GCATCAAGACATTCTA (sugars k3 d1 m1 d8 k3, PS)” belongs 51%; to CTTATGATAATTTGGT (sugars k3 d10 k3, PS), 2%; to ATAAAAATCGCTGCTT (sugars k3 d10 k3, PS), 11%.
TCTTAAACCTTCCCTG (sugars k3 d10 k3, PS) came in with a target mRNA inhibition (1 µM) of 21%.
Still for that read-out and setting: to ATGGCTACAGATTGGA (sugars k3 d10 k3, PS) belongs 72%.
For GTTCTTGTTGATATTC (sugars k3 d10 k3, PS), the target mRNA inhibition reads like this: (0.02 µM) 35%; (0.078 µM) 51%; (0.313 µM) 77%; (1 µM) 84%; (1.25 µM) 92%; (5 µM) 96%.
In turn, GACATAGACATGTGTT (sugars k3 d10 k3, PS) showed a target mRNA inhibition (1 µM) of 26%.
The same measure, in the same setting: next, “AGCCAGTACAGTTCCT (sugars kkdddddddddkekek, PS)”: 49%; CAGTCTTAAACCTTCC (sugars k3 d10 k3, PS): 70%.
With “GAGTCGGTCACCTTTC (sugars k3 d9 k3 e1, PS)”, the target mRNA inhibition (0.02 µM) came out at 0%; the target mRNA inhibition (0.078 µM) amounted to 0%; the target mRNA inhibition (0.313 µM) amounted to 0%; the target mRNA inhibition (1 µM) is 74%; the target mRNA inhibition (1.25 µM) is 51%; the target mRNA inhibition (5 µM) was 76%.
In the case of GAACCGTATTCCCAAC (sugars k3 d10 k3, PS), the target mRNA inhibition (1 µM) stood at 72%.
Still for that read-out and setting: next, CCTGCCTATTCCATGC (sugars k3 d10 k3, PS): 24%; “GCAGAAATTCACCTTG (sugars k3 d9 k3 e1, PS)”: 62%.
For GTTAAAACTTCATTCC (sugars k3 d10 k3, PS), the target mRNA inhibition (1 µM) was 5%.
The same measure, in the same setting: next, CGAAACTATTCATATC (sugars k3 d10 k3, PS): 66%; GACAGGTAATTAATCT (sugars k3 d10 k3, PS): 60%; TATCAACCTGCACACC (sugars k3 d10 k3, PS): 62%.
Same read-out and setting: next, “GAAGTTAGTATAGTTA (sugars k3 d9 k3 e1, PS)”: 75%; “TATTGGTAAGTATTCC (sugars k3 d1 m1 d8 k3, PS)”: 41%.
